Patent publication US9642829B2, “Antifungal compound and uses thereof” (The University of Hong Kong, priority 2012, dated 2017)

How the values were obtained:
[1] = In vivo safety in mouse model; conditions: 200 μg (100 times the effective dose of 2 μg) twice a day for five days
Description: Next, we used mouse model and treated the animals with 100 times of the effective dose (2 μg) i.e. 200 μg of SM21 twice a day for five days.

[2] = system: mixed species Candida biofilms; experiment: Mixed species Candida biofilm MIC, XTT reduction assay; assay type: cell-based; conditions: 48 h mixed species biofilms, two Candida species at 1×10^7 cells/ml each
Description: Clinical studies have shown that some of the Candida species could involve mixed Candida species such as C. albicans with non-albicans Candida species. Therefore, next we formed mixed species biofilms using the methods we have used in our previous published studies. This methodology is essentially similar to what mentioned under mono-species biofilms except initial inoculums involve two Candida species at equal inoculums size of 1×10^7 cells/ml. After 48 h of growth, mixed species Candida biofilms were subjected to serially diluted concentration of SM21 and MIC was determined by XTT reduction assay (FIG. 5).

[3] = system: C. albicans; experiment: Yeast-to-hypha (Y-H) transition inhibition under strong hyphal inducing conditions; assay type: cell-based, Candida albicans; set-up: Y-Hi (yeast-to-hypha inhibitory activity): unit: μg/ml
Text: A large collection of small molecule library was screened in search of inhibitors of yeast-to-hypha transition (Y—H) of C. albicans using 384-well plate-high throughout assays (HTS). […] After subsequent studies with robust Y—H inducing conditions, we herein report a novel small molecule SM21 (FIG. 1) with strong Y-Hi activity and antifungal-activity.
Several environmental conditions which are known to induce the hyphal formation of C. albicans such as serum, Lee's medium, Spider medium, temperature and 37° C. were used to test the ability of SM21 to inhibit Y—H transition. […] SM21 could act as a Y-Hi at a lower concentration of 0.025 μg/ml and 0.0.5 μg/ml for 10^4 cells/ml and 10^6 cells/ml of C. albicans, respectively. Chemical structure of SM21 is shown in (F)

[4] = system: C. tropicalis drug resistant isolates; experiment: Susceptibility of multidrug resistant clinical isolates, CLSI M27A broth microdilution; assay type: cell-based, Candida tropicalis; conditions: resistant to Itraconazole
Text: (§1) Oral Biosciences laboratory has one of the largest collections of fungal isolates, particular that of Candida species in the world. In our previous studies, we have found multidrug resistant clinical isolates of Candida species against existing antifungals. In particular, some of these strains are resistant to best antifungal agents to date such as caspofungin, amphotericin B and fluconazole. Therefore, we performed antifungal susceptibility testing for SM21 against these drug resistant Candida isolates suing CLSI M27A brothmicrodultion assay and CLSI M44-A disc diffusion assay.

[5] = system: C. albicans; experiment: Systemic candidiasis mouse model; assay type: in vivo; conditions: i.v. C. albicans 1×10^6 cells/mL, 100 μl; 2 μg SM21 from 3 h post-infection, twice a day for five days
Description: As a pilot study, we used systemic candidiasis mouse models we have established in our laboratory to evaluate the effect of SM21 against systemic Candida infection. In brief, C. albicans inoculum of 1×10^6 cells/mL was prepared in phosphate buffered saline (PBS) eight mice were infected with 100 μl of the standard inoculum size intravenously via the tail vein. Three hours after post-infection four mice (test group) were given 2 μg of SM21 and other four (control group) were given PBS. SM21 treatment was continued twice a day for five days. By five days all mice in the control group died (FIG. 8). Mice in each test group were sacrificed according to the standard guidelines and their kidney, liver, pancreas, and spleen will be harvested. The fungal burden in the tissues will be assessed according to a standard protocol. In brief, part of the excised tissues were weighed individually and homogenized in sterile saline. Aliquots of 100 μL from tissue homogenates and their dilutions were plated on Sabouraud's dextrose agar and colonies were counted after 48 h of incubation at 37° C.

[6] = system: C. tropicalis; experiment: Antifungal susceptibility (MIC/MFC), CLSI criteria; assay type: cell-based, Candida tropicalis; conditions: C. tropicalis ATCC; 0.5 McFarland inoculum (10^6 cells/ml)
Description: (§2) Antifungal activity of the small molecules was evaluated using USA standards, Clinical and Laboratory Standards Institute (CLSI) criteria. In brief, inocula from 24 h Candida cultures on Sabourauds's dextore agar were standardized to a turbidity equivalent of 0.5 McFarland standards at 520 nm with a spectrophotometer. The suspensions were further diluted in Rosewell Park Memorial Institute (RPMI) 1640 medium (Life technologies, New York, USA) to yield an inoculum concentration of approximately 0.5 1×10^3 to 2.5 1×10^3 cells/ml. Minimum inhibitory concentration (MIC) and minimum fungicidal concentration (MFC) assay was performed in 96-well plates (Iwaki, Tokyo, Japan) and each of the Candida species was exposed to a double dilution of SM21. Amphotericin B was used as a positive control. All the experiments were preformed three occasions with duplicates for all isolates. The plates were incubated at 35° C. for 48 h to evaluate MIC. In the case of Cryotococcus neoformans, reading were taken after 72 h. Aforementioned assay was performed for C. albicans ATCC 90028, C. albicans SC5314 and 10 C. albicans clinical isolates. Moreover, MIC/MFC determination was carried out for other fungal species such as C. glabrata, C. krusei, C. tropicalis, C. parapsilosis, C. neoformans, Aspergillus fumigates and Penicillium marneffei. […]

[7] = system: C. glabrata drug resistant isolates; experiment: Susceptibility of multidrug resistant clinical isolates, CLSI M27A broth microdilution; assay type: cell-based, Candida glabrata
Text: as §1

[8] = system: C. krusei; experiment: Antifungal susceptibility (MIC/MFC), CLSI criteria; assay type: cell-based, Candida krusei; conditions: C. krusei ATCC; 0.5 McFarland inoculum (10^6 cells/ml)
Description: as §2

**Q.** Which results are given for `CN(C)c1ccc(/C=C/c2cc(C(C)(C)C)[o+]c(C(C)(C)C)c2)cc1.[O-][Cl+3]([O-])([O-])[O-]` [SM21]?
**A.** Detrimental effect in terms of weight reduction and side effects [1]: did not show any detrimental effect; Active concentration (MIC by XTT reduction assay) against mixed species biofilms [2]: 25 µg/mL; Concentration acting as Y-Hi ([3]; 10^4 cells/ml of C. albicans): 0.025 µg/mL; Y-Hi (yeast-to-hypha inhibitory activity) ([3]; C. albicans 10^4 cells/ml): 0.025; Y-Hi (yeast-to-hypha inhibitory activity) ([3]; C. albicans 10^5 cells/ml): 0.5; Y-Hi (yeast-to-hypha inhibitory activity) ([3]; C. albicans 10^6 cells/ml): 0.1; Y-Hi (yeast-to-hypha inhibitory activity) ([3]; C. albicans 10^7 cells/ml): 0.2; Morphology of C. albicans under hyphal inducing conditions ([3]; incubated with SM21 at Y-Hi concentration, serum, Lee's medium, Spider medium, 37° C.): yeast morphology; MIC ([4]; C. tropicalis T789): 1 µg/mL; MIC ([4]; C. tropicalis T1148): 0.5 µg/mL; MIC ([4]; C. tropicalis T1427): 1 µg/mL; Survival of infected mice [5]: saved all the mice; Susceptibility (MIC90) [6]: 0.8 µg/mL; MIC ([7]; C. glabrata 1570, resistant to Itraconazole): 0.5 µg/mL; MIC ([7]; C. glabrata T1585, resistant to Fluconazole, Itraconazole, ketoconazole, Voriconazole): 1 µg/mL; MIC ([7]; C. glabrata T1672, resistant to Itraconazole, Ketaconazole): 0.5 µg/mL; Susceptibility (MIC90) [8]: 0.4 µg/mL
